Assay results from article PMC3059997, “Exploring Indirect Sources of Human Exposure to Perfluoroalkyl Carboxylates (PFCAs): Evaluating Uptake, Elimination, and Biotransformation of Polyfluoroalkyl Phosphate Esters (PAPs) in the Rat” (Environmental Health Perspectives, 2010).

Assays:
[1] = Elimination experiment: diPAP mixture by IV injection, analytes in whole blood; format: in vivo, Sprague-Dawley rats; settings: for Cmax / Tmax / Cmax (ng/g) / Half-life: diPAP IV dose, whole blood; for Cmax / Cmax (ng/g) / Half-life: mean ± SE; for Cmax / Cmax (ng/g): values in parentheses < LOQ but > LOD; for Half-life: about 15 mg/kg each
Protocol: (§1) This research was conducted under an animal use protocol approved by the University of Toronto Animal Care Committee. All animals were treated humanely and with regard for alleviation of suffering. Sprague-Dawley rats were obtained from Charles River Laboratories Inc. (Sherbrooke, QC, Canada) The animals were singly housed and exposed to a 12/12 hr light/dark cycle with food and water available ad libitum. Blood samples were collected from the saphenous vein using Microvette CB 300 vials (Sarstedt AG & Co., Montreal, QC, Canada) embedded with lithium-heparin as an anticoagulant. Whole-blood samples were stored at −20°C, and urine and feces samples were stored at 4°C.
(§2) Two groups of four 8-week-old male rats were administered a mixture of 4:2, 6:2, 8:2, and 10:2 diPAP or monoPAP, respectively, each at about 15 mg/kg, at 2 mL/kg by intravenous (IV) injection into the lateral tail vein. The dosing vehicle was 50:50 propylene glycol:water. Two control male rats were administered clean vehicle at 2 mL/kg [for details see Supplemental Material, Table 3 (doi:10.1289/ehp.1002409)].
(§3) Blood was collected from all animals 3 days before dosing to establish background contamination. For the uptake experiment, blood samples were collected at 1, 3, and 6 hr and 1, 2, 4, 7, 10, 14, 18, and 22 days after dosing. For the elimination experiment, blood samples were collected at 2, 4, and 6 hr and 1, 2, 4, 8, 11, 15, and 18 days after dosing. On the final sampling day, the animals were sacrificed by carbon dioxide asphyxiation, and about 10 mL of blood was collected by cardiac puncture into a BD Vacutainer embedded with lithium-heparin.
(§4) The compounds of interest fall into four categories: a) the diPAP and monoPAP parent compounds, b) the saturated and unsaturated fluorotelomer carboxylic acid (FTCA and FTUCA) metabolic intermediates, c) the FTOH-sulfate and FTOH-glucuronide phase II metabolites, and d) the final PFCA biotransformation products [see Supplemental Material, Table 1 (doi:10.1289/ehp.1002409)]. We analyzed these compounds in whole blood, urine, and feces samples. For full analytical details, see Supplemental Material. All PFCAs, FTCAs, FTUCAs, and phase II metabolites were quantified by internal calibration. Because internal standards were not available, monoPAPs and diPAPs were quantified by standard addition. We performed spike and recovery experments to validate the extraction and quantification techniques used (for details, see Supplemental Material).
(§5) Analyte and matrix specific limits of detection (LODs) and limits of quantification (LOQs) are provided in Supplemental Material (doi:10.1289/ehp.1002409). For the purpose of calculating means, values < LOD were assigned a value of zero, and values < LOQ but > LOD were used unaltered but are indicated by asterisks in figures and parentheses in tables. Values are presented using the arithmetic mean ± SE. Full data sets are available in Supplemental Material. […]

[2] = Elimination experiment: monoPAP mixture by IV injection, analytes in whole blood; format: in vivo, Sprague-Dawley rats; settings: for Cmax / Tmax / Half-life: monoPAP IV dose; for Cmax / Tmax: whole blood; for Half-life: about 15 mg/kg each, PFCA product in whole blood
Protocol: as §1, §2, §3, §4
(§6) Analyte and matrix specific limits of detection (LODs) and limits of quantification (LOQs) are provided in Supplemental Material (doi:10.1289/ehp.1002409). For the purpose of calculating means, values < LOD were assigned a value of zero, and values < LOQ but > LOD were used unaltered but are indicated by asterisks in figures and parentheses in tables. Values are presented using the arithmetic mean ± SE. Full data sets are available in Supplemental Material.

[3] = Renal elimination: analytes in urine collected in metabolic cages; format: in vivo, Sprague-Dawley rats
Protocol: as §1, with “4°C. […]” for “4°C.”
as §4, with “For full analytical details, see Supplemental Material.” left out, “We performed spike and recovery experments to validate the extraction and quantification techniques used (for details, see Supplemental Material).” left out

[4] = Uptake experiment: diPAP mixture by oral gavage, analytes in whole blood; format: in vivo, Sprague-Dawley rats; settings: for Cmax / Tmax / Half-life: diPAP gavage dose, whole blood; for Cmax / Half-life: mean ± SE; for Cmax: values in parentheses < LOQ but > LOD; for Half-life: about 50 mg/kg each
Protocol: as §1
(§7) Two groups of four 8-week-old male rats were administered a mixture of 4:2, 6:2, 8:2, and 10:2 diPAP or monoPAP, respectively, each at about 50 mg/kg, at 4 mL/kg by oral gavage without prior fasting. […] Two control male rats were administered clean vehicle at 4 mL/kg [for details, see Supplemental Material, Table 3 (doi:10.1289/ehp.1002409)].
as §3, §4, §5

[5] = Uptake experiment: monoPAP mixture by oral gavage, analytes in whole blood; format: in vivo, Sprague-Dawley rats; settings: for Tmax / Cmax / Cmax (ng/g): whole blood; for Cmax / Cmax (ng/g): values in parentheses < LOQ but > LOD
Protocol: as §1, §7, §3, §4, §6

[6] = design: method as in Chang et al. 2008; Ohmori et al. 2003; settings: male rats; ref Chang et al. 2008; Ohmori et al. 2003; cited from earlier work
[7] = male, Sprague-Dawley, rat, in vivo, 15 mg/kg, read-out: Cmax
[8] = male, Sprague-Dawley, rat, in vivo, 15 mg/kg, read-out: Tmax (converted)

O=S(=O)(O)OCCC(F)(F)C(F)(F)C(F)(F)C(F)(F)F [4:2 FTOH-sulfate]
Detection in blood (time points) ([1]; after IV diPAP dosing): in the blood 2 hr postdosing | Detection in blood (time points) ([2]; after monoPAP IV dosing): in the blood 2 hr after dosing | Observation in urine ([3]; urine samples from all dosing regimes): consistently observed

O=C(O)C=C(F)C(F)(F)C(F)(F)C(F)(F)F [4:2 FTUCA]
Detection in blood (time points) ([4]; rat, in vivo, po): 6 hr postdosing, but in only one animal | Detection in blood (time points) ([2]; rat, in vivo, iv): 2 hr postdosing

O=C(O)CC(F)(F)C(F)(F)C(F)(F)C(F)(F)C(F)(F)C(F)(F)F [6:2 FTCA]
Detection in blood (time points) ([4]; after diPAP oral gavage): 6 hr postdosing, but in only one animal | Detection in blood (time points) ([5]; after monoPAP oral gavage): blood samples taken 2, 4, and 6 hr postdosing | Detection in blood (time points) ([2]; after monoPAP IV dosing): 2 hr postdosing

O=C(O)C(F)(F)C(F)(F)C(F)(F)C(F)(F)C(F)(F)C(F)(F)F [PFHpA, perfluoroheptanoic acid]
Cmax ([4]; male, Sprague-Dawley, rat, in vivo, po, 50 mg/kg, read-out: Cmax): 2.6 ± 0.5 ng/g | Tmax ([4]; male, Sprague-Dawley, rat, in vivo, po, 50 mg/kg, read-out: Tmax (converted)): 24 h | Cmax [1, 7]: 7.3 ± 0.6 ng/g | Tmax [1, 8]: 4 h | Tmax ([5]; male, Sprague-Dawley, rat, in vivo, po, 50 mg/kg, monoPAP gavage dose, read-out: Tmax (converted)): 24 h | Cmax ([5]; male, Sprague-Dawley, rat, in vivo, po, 50 mg/kg, monoPAP gavage dose, read-out: Cmax): 9 ± 2.2 ng/g | Cmax [2, 7]: 2.3 ± 0.7 ng/g | Tmax [2, 8]: 24 h

O=S(=O)(O)OCCC(F)(F)C(F)(F)C(F)(F)C(F)(F)C(F)(F)C(F)(F)C(F)(F)C(F)(F)F [8:2 FTOH-sulfate]
Detection in blood (time points) ([5]; after monoPAP oral gavage): frequently detected between 6 hr and 2 days postdosing

O=S(=O)(O)OCCC(F)(F)C(F)(F)C(F)(F)C(F)(F)C(F)(F)C(F)(F)C(F)(F)C(F)(F)C(F)(F)C(F)(F)F [10:2 FTOH-sulfate]
Detection in blood (time points) ([4]; after diPAP oral gavage): at 1 and 2 days after dosing | Detection in blood (time points) ([5]; after monoPAP oral gavage): frequently detected between 6 hr and 2 days postdosing

O=C(O)C(F)(F)C(F)(F)C(F)(F)C(F)(F)F [PFPeA, perfluoropentanoic acid]
Tmax [1]: 2 h | Cmax [1]: 7.1 ± 0.6 ng/g | Cmax [2]: 2.1 ± 0.8 ng/g | Tmax [2]: 6 h

O=C(O)C(F)(F)C(F)(F)C(F)(F)C(F)(F)C(F)(F)C(F)(F)C(F)(F)C(F)(F)F [PFNA, perfluorononanoate]
Tmax [4]: 190 h | Cmax [4]: 6.4 ± 5.2 ng/g | Tmax [1]: 360 h | Cmax (ng/g) [1]: (4.1 ± 3.3) ng/g | Tmax ([5]; monoPAP gavage dose): 1 day days | Cmax (ng/g) ([5]; monoPAP gavage dose): (1.5 ± 0.09) ng/g | Cmax [2]: 2.3 ± 0.4 ng/g | Tmax [2]: 360 h

O=C(O)CCC(F)(F)C(F)(F)C(F)(F)C(F)(F)C(F)(F)C(F)(F)C(F)(F)F [7:3 FTCA]
Detection in blood (time points) ([5]; after monoPAP oral gavage): present in all of the samples from 2 hr to 2 days postdosing

O=C(O)C=C(F)C(F)(F)C(F)(F)C(F)(F)C(F)(F)C(F)(F)F [6:2 FTUCA]
Detection in blood (time points) ([4]; rat, in vivo, po): 6 hr postdosing, but in only one animal | Detection in blood (time points) ([2]; rat, in vivo, iv): observed in the 2, 4, and 6-hr time points

O=C(O)[C@H]1O[C@@H](OCCC(F)(F)C(F)(F)C(F)(F)C(F)(F)F)[C@H](O)[C@@H](O)[C@@H]1O [4:2 FTOH-glucuronide]
Detection in blood (time points) ([1]; rat, in vivo, iv): in the blood 2 hr postdosing | Detection in blood (time points) ([5]; rat, in vivo, po): observed at 2 hr and 6 hr postdosing | Detection in blood (time points) ([2]; rat, in vivo, iv): in the blood 2 hr after dosing | Observation in urine ([3]; rat, in vivo): consistently observed

O=C(O)CCC(F)(F)C(F)(F)C(F)(F)C(F)(F)C(F)(F)F [5:3 FTCA]
Detection in blood (time points) ([1]; after IV diPAP dosing): in the samples from 2 hr to 2 days postdosing | Detection in blood (time points) ([5]; after monoPAP oral gavage): present in all of the samples from 2 hr to 2 days postdosing | Detection in blood (time points) ([2]; after monoPAP IV dosing): observed in the 2, 4, and 6-hr time points

O=C(O)CC(F)(F)C(F)(F)C(F)(F)C(F)(F)F [4:2 FTCA]
Detection in blood (time points) ([4]; after diPAP oral gavage): 6 hr postdosing, but in only one animal | Detection in blood (time points) ([2]; after monoPAP IV dosing): 2 hr postdosing

O=C(O)CC(F)(F)C(F)(F)C(F)(F)C(F)(F)C(F)(F)C(F)(F)C(F)(F)C(F)(F)F [8:2 FTCA]
Detection in blood (time points) ([4]; after diPAP oral gavage): 6 hr postdosing, but in only one animal | Detection in blood (time points) ([5]; after monoPAP oral gavage): blood samples taken 2, 4, and 6 hr postdosing

O=C(O)C(F)(F)C(F)(F)C(F)(F)C(F)(F)C(F)(F)C(F)(F)C(F)(F)C(F)(F)C(F)(F)F [PFDA, perfluorodecanoate]
Half-life [4]: 264 ± 48 h | Tmax [4]: 1 day days | Cmax [4]: 3.6 ± 0.6 ng/g | Half-life [1]: 240 ± 48 h | Tmax [1]: 48 h | Cmax [1]: 6.2 ± 1.2 ng/g | Half-life ([5]; monoPAP gavage dose, about 50 mg/kg each, PFCA product in whole blood): 288 ± 190 h | Tmax ([5]; monoPAP gavage dose): 48 h | Cmax (ng/g) ([5]; monoPAP gavage dose): (1.1 ± 0.27) ng/g | Half-life [2]: 312 ± 220 h | Cmax [2]: 0.93 ± 0.20 ng/g | Tmax [2]: 360 h

O=C(O)C(F)(F)C(F)(F)C(F)(F)F [PFBA, perfluorobutanoic acid]
Tmax [4]: 1 day days | Cmax [4]: 3.8 ± 1.0 ng/g | Half-life [1]: 79.2 ± 28.8 h | Tmax [1]: 1 day days | Cmax [1]: 20 ± 5 ng/g | Tmax ([5]; monoPAP gavage dose): 1 day days | Cmax ([5]; monoPAP gavage dose): 9.7 ± 1.9 ng/g | Half-life [2]: 12.7 ± 3.6 h | Cmax [2]: 7.3 ± 1.3 ng/g | Tmax [2]: 6 h | Serum half-lives [6]: on the order of hours

O=C(O)C(F)(F)C(F)(F)C(F)(F)C(F)(F)C(F)(F)F [PFHxA, perfluorohexanoic acid]
Half-life [4]: 101 ± 31.2 h | Tmax [4]: 4 h | Cmax [4]: 10 ± 1.2 ng/g | Half-life [1]: 43.2 ± 12.2 h | Tmax [1]: 1 day days | Cmax (ng/g) [1]: (3.0 ± 1.0) ^d ng/g | Tmax ([5]; monoPAP gavage dose): 4 h | Cmax ([5]; monoPAP gavage dose): 7.4 ± 1.5 ng/g | Half-life [2]: 5.52 ± 5.52 h | Cmax [2]: 5.6 ± 1.3 ng/g | Tmax [2]: 4 h | Serum half-lives [6]: on the order of hours

O=C(O)CC(F)(F)C(F)(F)C(F)(F)C(F)(F)C(F)(F)C(F)(F)C(F)(F)C(F)(F)C(F)(F)C(F)(F)F [10:2 FTCA]
Detection in blood (time points) ([4]; after diPAP oral gavage): present in the blood at the 6-hr time point | Detection in blood (time points) ([1]; after IV diPAP dosing): only in the sample collected 2 days after dosing

O=C(O)[C@H]1O[C@@H](OCCC(F)(F)C(F)(F)C(F)(F)C(F)(F)C(F)(F)C(F)(F)F)[C@H](O)[C@@H](O)[C@@H]1O [6:2 FTOH-glucuronide]
Detection in blood (time points) ([5]; rat, in vivo, po): observed at 2 hr and 6 hr postdosing
